Entries after “also recorded” stand apart in the source; their conditions may differ.
Test: Toxicology in rats, oral, histopathology
Format: in vivo
Description: After 32 days, the rats were sacrificed and their organs were examined under a microscope.

O.O.O.O.[Na+].[O-]B1OO1 [sodium perborate tetrahydrate]
KIDNEY Edema, No Exam (rat, in vivo, po, 4 mg/kg): 0/10
KIDNEY Notable or abnormal, % (rat, in vivo, po, 4 mg/kg): 0%
KIDNEY Notable or abnormal, No Exam (rat, in vivo, po, 4 mg/kg): 0/10
KIDNEY Within normal limits, % (rat, in vivo, po, 4 mg/kg): 100%
KIDNEY Within normal limits, No Exam (rat, in vivo, po, 4 mg/kg): 10/10
LIVER Fattening, % (rat, in vivo, po, 4 mg/kg): 0%
LIVER Fattening, No Exam (rat, in vivo, po, 4 mg/kg): 0/10
LIVER Infiltration, % (rat, in vivo, po, 4 mg/kg): 0%
LIVER Infiltration, No Exam (rat, in vivo, po, 4 mg/kg): 0/10
LIVER Notable or abnormal, % (rat, in vivo, po, 4 mg/kg): 0%
LIVER Notable or abnormal, No Exam (rat, in vivo, po, 4 mg/kg): 0/10
LIVER Within normal limits, % (rat, in vivo, po, 4 mg/kg): 100%
LIVER Within normal limits, No Exam (rat, in vivo, po, 4 mg/kg): 10/10
LUNG Lymphocytic infiltration, % (rat, in vivo, po, 4 mg/kg): 0%
LUNG Lymphocytic infiltration, No Exam (rat, in vivo, po, 4 mg/kg): 0/10
LUNG Notable or abnormal, % (rat, in vivo, po, 4 mg/kg): 0%
LUNG Notable or abnormal, No Exam (rat, in vivo, po, 4 mg/kg): 0/10
LUNG Pulmonary edema, % (rat, in vivo, po, 4 mg/kg): 0%
LUNG Pulmonary edema, No Exam (rat, in vivo, po, 4 mg/kg): 0/10
LUNG Within normal limits, % (rat, in vivo, po, 4 mg/kg): 100%
LUNG Within normal limits, No Exam (rat, in vivo, po, 4 mg/kg): 10/10
PANCREAS Notable or abnormal, % (rat, in vivo, po, 4 mg/kg): 0%
PANCREAS Notable or abnormal, No Exam (rat, in vivo, po, 4 mg/kg): 0/10
PANCREAS Within normal limits, % (rat, in vivo, po, 4 mg/kg): 100%
PANCREAS Within normal limits, No Exam (rat, in vivo, po, 4 mg/kg): 10/10
SPLEEN Notable or abnormal, % (rat, in vivo, po, 4 mg/kg): 0%
SPLEEN Notable or abnormal, No Exam (rat, in vivo, po, 4 mg/kg): 0/10
SPLEEN Within normal limits, % (rat, in vivo, po, 4 mg/kg): 100%
SPLEEN Within normal limits, No Exam (rat, in vivo, po, 4 mg/kg): 10/10
STOMACH Notable or abnormal, % (rat, in vivo, po, 4 mg/kg): 0%
STOMACH Notable or abnormal, No Exam (rat, in vivo, po, 4 mg/kg): 0/10
STOMACH Within normal limits, % (rat, in vivo, po, 4 mg/kg): 100%
STOMACH Within normal limits, No Exam (rat, in vivo, po, 4 mg/kg): 10/10
HEART Notable or abnormal, % (rat, in vivo, po, 8 mg/kg/day): 0%
HEART Notable or abnormal, No Exam (rat, in vivo, po, 8 mg/kg/day): 0/10
HEART Within normal limits, % (rat, in vivo, po, 8 mg/kg/day): 100%
HEART Within normal limits, No Exam (rat, in vivo, po, 8 mg/kg/day): 10/10
INTESTINE, Large Notable or abnormal, % (rat, in vivo, po, 8 mg/kg/day): 0%
INTESTINE, Large Notable or abnormal, No Exam (rat, in vivo, po, 8 mg/kg/day): 0/10
INTESTINE, Large Within normal limits, % (rat, in vivo, po, 8 mg/kg/day): 100%
INTESTINE, Large Within normal limits, No Exam (rat, in vivo, po, 8 mg/kg/day): 10/10
INTESTINE, Small Enteritis, % (rat, in vivo, po, 8 mg/kg/day): 10%
INTESTINE, Small Enteritis, No Exam (rat, in vivo, po, 8 mg/kg/day): 1/10
INTESTINE, Small Notable or abnormal, % (rat, in vivo, po, 8 mg/kg/day): 10%
INTESTINE, Small Notable or abnormal, No Exam (rat, in vivo, po, 8 mg/kg/day): 1/10
INTESTINE, Small Within normal limits, % (rat, in vivo, po, 8 mg/kg/day): 90%
INTESTINE, Small Within normal limits, No Exam (rat, in vivo, po, 8 mg/kg/day): 9/10
KIDNEY Edema, % (rat, in vivo, po, 8 mg/kg/day): 0%
KIDNEY Edema, No Exam (rat, in vivo, po, 8 mg/kg/day): 0/10
KIDNEY Notable or abnormal, % (rat, in vivo, po, 8 mg/kg/day): 0%
KIDNEY Notable or abnormal, No Exam (rat, in vivo, po, 8 mg/kg/day): 0/10
KIDNEY Within normal limits, % (rat, in vivo, po, 8 mg/kg/day): 100%
KIDNEY Within normal limits, No Exam (rat, in vivo, po, 8 mg/kg/day): 10/10
LIVER Fattening, % (rat, in vivo, po, 8 mg/kg/day): 0%
LIVER Fattening, No Exam (rat, in vivo, po, 8 mg/kg/day): 0/10
LIVER Infiltration, % (rat, in vivo, po, 8 mg/kg/day): 0%
LIVER Infiltration, No Exam (rat, in vivo, po, 8 mg/kg/day): 0/10
LIVER Notable or abnormal, % (rat, in vivo, po, 8 mg/kg/day): 0%
LIVER Notable or abnormal, No Exam (rat, in vivo, po, 8 mg/kg/day): 0/10
LIVER Within normal limits, % (rat, in vivo, po, 8 mg/kg/day): 100%
LIVER Within normal limits, No Exam (rat, in vivo, po, 8 mg/kg/day): 10/10
LUNG Lymphocytic infiltration, % (rat, in vivo, po, 8 mg/kg/day): 0%
LUNG Lymphocytic infiltration, No Exam (rat, in vivo, po, 8 mg/kg/day): 0/10
LUNG Notable or abnormal, % (rat, in vivo, po, 8 mg/kg/day): 0%
LUNG Notable or abnormal, No Exam (rat, in vivo, po, 8 mg/kg/day): 0/10
LUNG Pulmonary edema, % (rat, in vivo, po, 8 mg/kg/day): 0%
LUNG Pulmonary edema, No Exam (rat, in vivo, po, 8 mg/kg/day): 0/10
LUNG Within normal limits, % (rat, in vivo, po, 8 mg/kg/day): 100%
LUNG Within normal limits, No Exam (rat, in vivo, po, 8 mg/kg/day): 10/10
PANCREAS Notable or abnormal, % (rat, in vivo, po, 8 mg/kg/day): 0%
PANCREAS Notable or abnormal, No Exam (rat, in vivo, po, 8 mg/kg/day): 0/10
PANCREAS Within normal limits, % (rat, in vivo, po, 8 mg/kg/day): 100%
PANCREAS Within normal limits, No Exam (rat, in vivo, po, 8 mg/kg/day): 10/10
SPLEEN Notable or abnormal, % (rat, in vivo, po, 8 mg/kg/day): 0%
SPLEEN Notable or abnormal, No Exam (rat, in vivo, po, 8 mg/kg/day): 0/10
SPLEEN Within normal limits, % (rat, in vivo, po, 8 mg/kg/day): 100%
SPLEEN Within normal limits, No Exam (rat, in vivo, po, 8 mg/kg/day): 10/10
STOMACH Notable or abnormal, % (rat, in vivo, po, 8 mg/kg/day): 0%
STOMACH Notable or abnormal, No Exam (rat, in vivo, po, 8 mg/kg/day): 0/10
STOMACH Within normal limits, % (rat, in vivo, po, 8 mg/kg/day): 100%
STOMACH Within normal limits, No Exam (rat, in vivo, po, 8 mg/kg/day): 10/10
histopathology overall: toxicity to healthy tissues / organ damage (rats, oral 0.125 mg/kg/day to 8 mg/kg/day, 32 days): no significant organ damage; also recorded: no significant toxicity to healthy tissues
